Results from patent US12006332B2, “Aminopyrimidine derivatives as phosphatidylinositol phosphate kinase inhibitors” (HiberCell, Inc., priority 2019, dated 2024).

Experiments:
[1] = molecular target: T1, PIP4K2A (Homo sapiens, UniProt P48426); assay: Kinase Assay-PIP4K2 A (ADP-Glo); assay type: biochemical
T1 construct: made in house; host or cells: E. coli
T1 sequence (P48426 1-406): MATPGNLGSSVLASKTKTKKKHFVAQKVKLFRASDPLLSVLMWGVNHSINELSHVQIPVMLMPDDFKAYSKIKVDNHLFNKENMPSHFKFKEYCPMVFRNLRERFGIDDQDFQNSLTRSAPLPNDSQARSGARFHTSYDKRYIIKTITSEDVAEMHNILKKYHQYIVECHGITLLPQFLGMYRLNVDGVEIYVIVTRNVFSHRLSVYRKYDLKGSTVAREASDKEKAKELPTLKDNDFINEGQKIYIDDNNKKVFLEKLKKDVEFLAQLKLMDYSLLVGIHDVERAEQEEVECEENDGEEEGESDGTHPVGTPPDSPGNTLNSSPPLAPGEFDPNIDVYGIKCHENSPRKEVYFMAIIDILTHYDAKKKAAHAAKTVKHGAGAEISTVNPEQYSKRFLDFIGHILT
Protocol: Dilution series of the compounds were prepared in DMSO at 100 times the final assay concentration (n1=n0/3 in 10 points). The compounds were further diluted to three times the assay concentration in assay buffer (20 mM MOPS pH 7.2, 25 mM magnesium chloride, 0.005% Tween 20). 6 μL of the diluted compounds were added to a 384 well assay plate followed by 9 μL of a mix consisting of 4 nM PIP4K2A (full length protein, SignalChem) and 100 μM PI(5)P diC8 (Tebu-Bio). Enzyme and compounds were pre-incubated at room temperature for 15 minutes.
Then 3 μL of a solution containing 60 μM ATP (Promega) in assay buffer was added to the wells containing compound and enzyme and mixing was performed by pipetting several times. The reaction was incubated at room temperature for 1 h. Then 18 μL of ADP-Glo™ Reagent (Promega) was added to stop the kinase reaction and deplete the unconsumed ATP, mixing was performed by pipetting several times. The plate was incubated at room temperature for 40 minutes before addition of 36 μL of Kinase Detection Reagent (Promega) to convert ADP to ATP and introduce luciferase and luciferin to detect ATP. The reaction was incubated at room temperature for 40 minutes before the luminescence was measured in a in a Victor 3V 1420 multilabel counter (Perkin Elmer).
Percent inhibition of the compounds as compared to dimethyl sulfoxide treated control samples was calculated. Compound concentration versus percent inhibition were fitted to generate IC50 values. […]

[2] = molecular target: T2, PIP4K2 B (Homo sapiens, UniProt P78356); assay: Kinase Assay-PIP4K2 B (Transcreener FI); assay type: biochemical
T2 construct: made in house; host or cells: E. coli
T2 sequence (P78356 1-416): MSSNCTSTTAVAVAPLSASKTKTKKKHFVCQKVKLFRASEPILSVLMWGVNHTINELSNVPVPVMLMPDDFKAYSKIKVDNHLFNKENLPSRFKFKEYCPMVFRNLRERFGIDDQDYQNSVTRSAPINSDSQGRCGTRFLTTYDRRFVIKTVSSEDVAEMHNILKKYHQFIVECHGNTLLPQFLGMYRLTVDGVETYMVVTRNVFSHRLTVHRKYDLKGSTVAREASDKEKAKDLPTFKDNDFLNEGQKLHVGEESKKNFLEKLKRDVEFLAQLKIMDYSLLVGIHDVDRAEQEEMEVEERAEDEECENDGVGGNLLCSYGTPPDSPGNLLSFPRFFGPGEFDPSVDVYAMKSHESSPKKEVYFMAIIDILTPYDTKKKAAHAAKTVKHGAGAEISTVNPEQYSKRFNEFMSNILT
From the text: GST tagged PIP4KtypeIIA and B enzymes were overexpressed in E. Coli and purified to >80% homogeneity. Phosphatidyl inositol-5-phosphate (PI5P, Cat. #850152, Avanti Polar Lipids Inc.) was used as the lipid substrate and phosphatidyl ethanolamine (DOPE 18:1, Cat. #850725, Avanti Polar Lipids Inc.) was used as the carrier lipid for assays. Ultrapure ATP and GTP was purchased from Bellbrooke Labs. ADP Glo reagents were obtained from Promega. Transcreener FI reagent was obtained from Bellbrooke labs.
• 1. HEPES buffer mix: 200 mM HEPES pH 7.4, 50 mM MgCl2, 0.05% v/v triton X 100 • 2. HNE buffer: 20 mM HEPES, pH 7.4, 100 mM NaCl, 0.5 mM EGTA • 3. H:E buffer: 30 mM HEPES, pH 7.4, 1 mM EGTA
GST-tagged PIP4KtypeIIB (3.4 μl, 2.77 mg/mL) was diluted to 5 mL using HNE buffer to yield 5× enzyme stock (25 nM)
Lipid Preparation: In a 10 mL pyrex glass vial, […] were suspended in 2.5 mL of HEPES buffer mix and 2.5 mL of H:E buffer. The contents were mixed and sonicated for 3 min to yield a translucent lipid stock.
Compound Preparation: Compounds were stored as 5 mM stocks in neat DMSO as room temperature in glass vials. 5 mM stocks were diluted to 2 mM and then serially diluted (3×) in neat DMSO in 96 well polypropylene plates. From the serially diluted stocks, 3 μL was delivered into 250 μL of 25% DMSO (in water) to generate 5× compound stocks. Typically, the highest compound conc. was 24 μM.
The assay volume was kept at 25 μL. To each well of the reaction plate, 10 μL of lipid stock (1:1 ratio PI5P:DOPE) was delivered. This was followed by the addition of 5 μL of compound in 25% DMSO. Then, to each well, 5 μL of 25 nM (5×) typeIIB enzyme was delivered. The contents were mixed well and incubated for 1 h at 27° C. After 1 h, reaction was initiated by adding 5 μL of 500 μM GTP and the contents were mixed well with a multi-channel pipetteman. The final concentration of the reagents are as follows: 50 mM HEPES, pH 7.3, 10 mM MgCl2, 20 mM NaCl, 0.01% v/v triton-X100, 5% DMSO, 100 μM GTP, 80 μM (2 μg) PI5P, 2 μg DOPE, and 5 nM PIP4KIIB Typically, the highest conc. of compounds was 4.8 μM and the lowest conc. was 0.
After 2 h, the reaction was quenched by adding 25 μL of transcreener FI reagent. The contents were incubated at rt for 1 h and the Fluorescence (Ex: 584 Em: 623) was read using Molecular Devices Paradigm plate reader. […] The blanks were averaged and subtracted from all other wells. Using a calibration curve, RFU was converted to μM GDP (product). IC50 was calculated by plotting the residual activity (expressed as % No inhibitor control) vs. log [Inh. conc.].

[3] = system: MOLM-16; assay: MOLM-16 EC50 assay; assay type: cell-based; conditions: MOLM16

| SMILES | IC50 [1] [µM] | IC50 [2] [µM] | EC50 [3] [µM] |
| --- | --- | --- | --- |
| C=C(C)c1cc(Nc2cnc3c(c2)N2C(=O)CC[C@H]2CO3)ncc1-c1ccc(-c2nncn2C)cc1 [Compound 8, (6S)-12-({5-[4-(4-methyl-4H-1,2,4-triazol-3-yl)phenyl]-4-(prop-1-en-2-yl)pyridin-2-yl}amino)-8-oxa-2,10-diazatricyclo[7.4.0.0^2,6]trideca-1(13),9,11-trien-3-one] | 0.001 to 0.01 | 0.001 to 0.01 | > 1 |
| CC1(C#N)CN(c2nc(Nc3cnc4c(c3)N3C(=O)CC[C@H]3CO4)ncc2-c2ccc(N3CCCC3=O)cc2)C1 [Compound 10, 3-methyl-1-(2-{[(6S)-3-oxo-8-oxa-2,10-diazatricyclo[7.4.0.0^2,6]trideca-1(13),9,11-trien-12-yl]amino}-5-[4-(2-oxopyrrolidin-1-yl)phenyl]pyrimidin-4-yl)azetidine-3-carbonitrile] | 0.001 to 0.01 | 0.001 to 0.01 | 0.1 to 1 |
| CN(c1nc(Nc2cnc3c(c2)OCCO3)ncc1-c1ccc(N2CCCC2=O)cc1)[C@H]1C[C@H](O)C1 [Compound 12, 1-{4-[2-({2H,3H-[1,4]dioxino[2,3-b]pyridin-7-yl}amino)-4-{methyl[(1r,3r)-3-hydroxycyclobutyl]amino}pyrimidin-5-yl]phenyl}pyrrolidin-2-one] | 0.001 to 0.01 | 0.001 to 0.01 | 0.1 to 1 |
| Cc1cnnn1-c1ccc(-c2cnc(Nc3cnc4c(c3)N(C(=O)OCCN(C)C)CCO4)nc2)cc1 [Compound 13, 2-(dimethylamino)ethyl 7-({5-[4-(5-methyl-1H-1,2,3-triazol-1-yl)phenyl]pyrimidin-2-yl}amino)-1H,2H,3H-pyrido[2,3-b][1,4]oxazine-1-carboxylate] | 0.001 to 0.01 | 0.001 to 0.01 | 0.1 to 1 |
| O=C1CCCN1c1ccc(-c2cnc(Nc3cnc4c(c3)N3C(=O)CC[C@H]3CO4)nc2C(F)(F)F)cc1 [Compound 14, (6S)-12-({5-[4-(2-oxopyrrolidin-1-yl)phenyl]-4-(trifluoromethyl)pyrimidin-2-yl}amino)-8-oxa-2,10-diazatricyclo[7.4.0.0^2,6]trideca-1(9),10,12-trien-3-one] | 0.001 to 0.01 | 0.001 to 0.01 | > 1 |
| COc1nc(Nc2cnc3c(c2)N(C(=O)OCCN(C)C)CCO3)ncc1-c1ccc(C(=O)N(C)C)cc1 [Compound 15, 2-(dimethylamino)ethyl 7-({5-[4-(dimethylcarbamoyl)phenyl]-4-methoxypyrimidin-2-yl}amino)-1H,2H,3H-pyrido[2,3-b][1,4]oxazine-1-carboxylate] | 0.001 to 0.01 | 0.001 to 0.01 | 0.1 to 1 |
| COc1nc(Nc2cncc(N3CCC(N(C)C)CC3)c2)ncc1-c1ccc(N2CCCC2=O)cc1 [Compound 16, 1-{4-[2-({5-[4-(dimethylamino)piperidin-1-yl]pyridin-3-yl}amino)-4-methoxypyrimidin-5-yl]phenyl}pyrrolidin-2-one] | 0.01 to 0.1 | 0.01 to 0.1 | 0.01 to 0.1 |
| CN(C)C(=O)c1ccc(-c2cnc(Nc3cnc4c(c3)OCCO4)nc2N(C)[C@H]2C[C@@H](O)C2)cc1 [Compound 18, 4-[2-({2H,3H-[1,4]dioxino[2,3-b]pyridin-7-yl}amino)-4-{methyl[(1s,3s)-3-hydroxycyclobutyl]amino}pyrimidin-5-yl]-N,N-dimethylbenzamide] | 0.01 to 0.1 | 0.1 to 1 | > 1 |
| COc1nc(Nc2cnc3c(c2)N(C(=O)CN(C)C)CCO3)ncc1-c1ccc(N2CCCC2=O)cc1 [Compound 19, 1-{4-[2-({1-[2-(dimethylamino)acetyl]-1H,2H,3H-pyrido[2,3-b][1,4]oxazin-7-yl}amino)-4-methoxypyrimidin-5-yl]phenyl}pyrrolidin-2-one] | 0.01 to 0.1 | 0.01 to 0.1 | 0.01 to 0.1 |
| Cc1cnnn1-c1ccc(-c2cnc(Nc3cnc4c(c3)N(C(=O)CN(C)C)CCO4)nc2)cc1 [Compound 20, 2-(dimethylamino)-1-[7-({5-[4-(5-methyl-1H-1,2,3-triazol-1-yl)phenyl]pyrimidin-2-yl}amino)-1H,2H,3H-pyrido[2,3-b][1,4]oxazin-1-yl]ethan-1-one] | 0.01 to 0.1 | 0.01 to 0.1 | 0.1 to 1 |
| O=C1CCCN1c1ccc(-c2cnc(Nc3cnc4c(c3)N3C(=O)CC[C@H]3CO4)nc2CC2(O)COC2)cc1F [Compound 21, (6S)-12-({5-[3-fluoro-4-(2-oxopyrrolidin-1-yl)phenyl]-4-[(3-hydroxyoxetan-3-yl)methyl]pyrimidin-2-yl}amino)-8-oxa-2,10-diazatricyclo[7.4.0.0^2,6]trideca-1(9),10,12-trien-3-one] | 0.01 to 0.1 | 0.01 to 0.1 | > 1 |
| CCN(CC)CCN1CCOc2ncc(Nc3ncc(-c4ccc(N5CCCC5=O)cc4)c(OC)n3)cc21 [Compound 26, 1-{4-[2-({1-[2-(diethylamino)ethyl]-1H,2H,3H-pyrido[2,3-b][1,4]oxazin-7-yl}amino)-4-methoxypyrimidin-5-yl]phenyl}pyrrolidin-2-one] | 0.1 to 1 | 0.1 to 1 | 0.1 to 1 |
| COc1nc(Nc2cncc(N3CC[C@@H](N(C)C)C3)c2)ncc1-c1ccc(-c2nnccc2C)cc1 [Compound 34, N-{5-[(3R)-3-(dimethylamino)pyrrolidin-1-yl]pyridin-3-yl}-4-methoxy-5-[4-(4-methylpyridazin-3-yl)phenyl]pyrimidin-2-amine] | 0.01 to 0.1 | 0.01 to 0.1 | 0.01 to 0.1 |
| COc1nc(Nc2cncc(N3CC[C@@H](N(C)C)C3)c2)ncc1-c1ccc(N2CCCC2=O)cc1 [Compound 35, 1-{4-[2-({5-[(3R)-3-(dimethylamino)pyrrolidin-1-yl]pyridin-3-yl}amino)-4-methoxypyrimidin-5-yl]phenyl}pyrrolidin-2-one] | 0.1 to 1 | 0.1 to 1 | 0.01 to 0.1 |
